# Laboratory results: patent US9340590B2 (priority 2011, dated 2016)
# Read-outs that look alike come from different tables or passages of the source. Positions of bridges follow the written chain, without caps; N, C: chain ends. Residues, ends and D or L forms follow the SMILES beside them.
# Legend:
# Assay in all cases: cell-based
# hNav1.5 = hNav1.5 (Homo sapiens, UniProt Q14524)
# hNav1.7 = hNav1.7 (Homo sapiens, UniProt Q15858); format: cell-based
# hNav1.3 = hNav1.3 (Homo sapiens, UniProt Q9NY46); conditions: IonWorks Quattro, read-out: IWQ Use Nav1.3
# [1] = IonWorks Quattro, Use, read-out: IWQ Use Nav1.5
# [2] = IonWorks Quattro, Use, read-out: IWQ Use Nav1.7
# Chain of hNav1.7 (Q15858 whole entry, looked up): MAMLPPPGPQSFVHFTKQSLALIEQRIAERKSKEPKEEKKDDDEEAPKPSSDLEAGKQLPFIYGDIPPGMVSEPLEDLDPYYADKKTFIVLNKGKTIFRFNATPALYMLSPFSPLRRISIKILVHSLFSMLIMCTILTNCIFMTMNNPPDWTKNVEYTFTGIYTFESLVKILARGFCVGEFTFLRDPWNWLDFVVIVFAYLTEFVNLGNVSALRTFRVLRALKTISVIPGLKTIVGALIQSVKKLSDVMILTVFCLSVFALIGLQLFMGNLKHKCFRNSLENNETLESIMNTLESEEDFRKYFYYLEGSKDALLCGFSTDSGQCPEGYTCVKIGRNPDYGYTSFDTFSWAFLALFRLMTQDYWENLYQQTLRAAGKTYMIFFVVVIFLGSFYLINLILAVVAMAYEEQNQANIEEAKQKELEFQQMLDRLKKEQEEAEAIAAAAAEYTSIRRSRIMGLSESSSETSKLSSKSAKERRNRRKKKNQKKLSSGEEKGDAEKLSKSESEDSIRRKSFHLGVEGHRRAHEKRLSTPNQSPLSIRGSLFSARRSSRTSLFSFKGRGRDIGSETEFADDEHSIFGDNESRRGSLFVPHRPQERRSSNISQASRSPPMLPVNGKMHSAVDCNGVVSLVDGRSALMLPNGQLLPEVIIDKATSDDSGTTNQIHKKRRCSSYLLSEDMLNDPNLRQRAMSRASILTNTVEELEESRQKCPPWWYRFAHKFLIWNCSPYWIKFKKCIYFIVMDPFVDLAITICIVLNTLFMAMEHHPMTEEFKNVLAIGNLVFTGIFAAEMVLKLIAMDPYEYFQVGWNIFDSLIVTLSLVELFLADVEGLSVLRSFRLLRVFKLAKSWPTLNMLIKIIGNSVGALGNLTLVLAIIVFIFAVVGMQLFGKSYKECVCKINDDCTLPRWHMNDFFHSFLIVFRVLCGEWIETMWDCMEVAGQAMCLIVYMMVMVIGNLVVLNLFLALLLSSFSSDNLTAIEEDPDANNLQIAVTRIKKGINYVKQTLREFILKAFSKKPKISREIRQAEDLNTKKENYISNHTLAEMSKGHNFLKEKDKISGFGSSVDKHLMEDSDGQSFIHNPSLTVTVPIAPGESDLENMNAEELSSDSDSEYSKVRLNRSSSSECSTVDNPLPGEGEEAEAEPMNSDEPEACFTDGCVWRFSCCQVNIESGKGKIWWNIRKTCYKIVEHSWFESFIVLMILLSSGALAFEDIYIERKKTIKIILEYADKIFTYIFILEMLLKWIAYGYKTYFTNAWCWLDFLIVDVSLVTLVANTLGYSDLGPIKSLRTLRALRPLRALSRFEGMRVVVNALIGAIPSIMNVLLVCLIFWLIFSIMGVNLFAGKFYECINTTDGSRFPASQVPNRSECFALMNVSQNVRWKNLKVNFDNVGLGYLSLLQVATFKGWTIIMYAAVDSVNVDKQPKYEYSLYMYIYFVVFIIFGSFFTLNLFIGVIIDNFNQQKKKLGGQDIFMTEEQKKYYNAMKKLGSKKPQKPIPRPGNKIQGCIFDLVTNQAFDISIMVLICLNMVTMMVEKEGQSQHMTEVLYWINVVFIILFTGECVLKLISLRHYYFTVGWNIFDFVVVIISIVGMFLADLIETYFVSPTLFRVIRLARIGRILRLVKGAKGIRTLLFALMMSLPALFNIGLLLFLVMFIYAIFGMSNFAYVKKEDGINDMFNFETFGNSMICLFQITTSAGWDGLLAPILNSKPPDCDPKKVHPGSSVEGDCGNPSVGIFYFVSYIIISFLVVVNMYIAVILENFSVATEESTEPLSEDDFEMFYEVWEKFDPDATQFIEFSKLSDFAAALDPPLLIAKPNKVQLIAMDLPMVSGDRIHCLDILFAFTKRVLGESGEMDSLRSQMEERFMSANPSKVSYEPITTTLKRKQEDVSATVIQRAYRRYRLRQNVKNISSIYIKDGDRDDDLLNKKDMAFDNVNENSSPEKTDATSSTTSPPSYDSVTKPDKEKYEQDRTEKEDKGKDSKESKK
# Chain of hNav1.5 (Q14524 whole entry, looked up): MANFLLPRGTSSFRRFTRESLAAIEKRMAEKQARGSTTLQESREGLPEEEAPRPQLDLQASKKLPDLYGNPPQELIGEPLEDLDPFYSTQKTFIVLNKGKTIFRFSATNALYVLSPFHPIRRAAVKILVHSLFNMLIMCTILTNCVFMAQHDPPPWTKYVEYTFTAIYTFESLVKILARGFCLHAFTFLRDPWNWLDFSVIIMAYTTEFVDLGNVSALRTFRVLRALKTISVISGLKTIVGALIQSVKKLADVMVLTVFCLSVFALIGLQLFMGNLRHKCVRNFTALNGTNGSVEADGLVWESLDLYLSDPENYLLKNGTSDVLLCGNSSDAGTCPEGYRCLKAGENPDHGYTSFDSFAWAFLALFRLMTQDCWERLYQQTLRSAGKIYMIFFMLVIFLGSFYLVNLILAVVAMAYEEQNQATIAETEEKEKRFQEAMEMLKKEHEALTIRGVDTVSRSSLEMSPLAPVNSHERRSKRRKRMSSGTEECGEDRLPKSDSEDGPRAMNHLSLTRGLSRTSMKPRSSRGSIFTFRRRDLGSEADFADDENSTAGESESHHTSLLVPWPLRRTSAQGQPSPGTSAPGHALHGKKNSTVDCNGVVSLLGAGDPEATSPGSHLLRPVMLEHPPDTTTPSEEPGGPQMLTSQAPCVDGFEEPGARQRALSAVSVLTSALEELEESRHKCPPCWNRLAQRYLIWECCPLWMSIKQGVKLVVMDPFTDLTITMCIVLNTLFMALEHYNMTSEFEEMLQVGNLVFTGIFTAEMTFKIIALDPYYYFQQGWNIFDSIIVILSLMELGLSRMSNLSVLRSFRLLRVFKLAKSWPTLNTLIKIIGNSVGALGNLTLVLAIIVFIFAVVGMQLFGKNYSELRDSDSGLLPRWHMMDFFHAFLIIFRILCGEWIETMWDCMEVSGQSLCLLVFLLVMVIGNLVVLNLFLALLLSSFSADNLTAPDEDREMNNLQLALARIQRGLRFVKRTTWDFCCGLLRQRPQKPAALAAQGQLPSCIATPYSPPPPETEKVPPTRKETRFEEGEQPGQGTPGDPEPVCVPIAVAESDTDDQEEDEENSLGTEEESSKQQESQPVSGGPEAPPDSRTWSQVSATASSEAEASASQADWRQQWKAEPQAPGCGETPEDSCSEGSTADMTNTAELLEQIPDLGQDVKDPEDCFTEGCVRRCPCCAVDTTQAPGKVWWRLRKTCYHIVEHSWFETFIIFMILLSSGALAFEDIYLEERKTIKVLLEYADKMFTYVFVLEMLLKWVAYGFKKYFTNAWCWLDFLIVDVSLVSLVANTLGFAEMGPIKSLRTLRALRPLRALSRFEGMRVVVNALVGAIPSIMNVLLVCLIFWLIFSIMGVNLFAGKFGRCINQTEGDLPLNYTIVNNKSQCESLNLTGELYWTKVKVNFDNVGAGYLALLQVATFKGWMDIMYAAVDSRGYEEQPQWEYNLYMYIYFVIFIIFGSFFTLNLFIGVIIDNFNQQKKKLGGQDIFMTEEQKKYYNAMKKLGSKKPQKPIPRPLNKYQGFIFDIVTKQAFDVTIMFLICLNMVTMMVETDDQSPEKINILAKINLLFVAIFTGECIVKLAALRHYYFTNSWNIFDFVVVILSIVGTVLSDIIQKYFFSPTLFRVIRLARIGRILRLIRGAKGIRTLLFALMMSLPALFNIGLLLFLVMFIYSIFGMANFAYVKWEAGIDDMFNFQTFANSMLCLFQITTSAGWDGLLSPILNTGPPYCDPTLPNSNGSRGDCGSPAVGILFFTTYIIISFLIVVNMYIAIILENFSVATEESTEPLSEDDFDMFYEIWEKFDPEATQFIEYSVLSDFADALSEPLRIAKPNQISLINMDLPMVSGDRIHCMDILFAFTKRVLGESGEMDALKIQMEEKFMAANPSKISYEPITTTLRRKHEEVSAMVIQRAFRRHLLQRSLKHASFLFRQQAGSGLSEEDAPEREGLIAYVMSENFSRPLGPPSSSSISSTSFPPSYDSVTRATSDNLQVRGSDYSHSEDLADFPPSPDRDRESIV
SMILES,IC50 (hNav1.5; [1]) [µM],IC50 (hNav1.7; [2]) [µM],IC50 (hNav1.3; Use) [µM],IC50 (hNav1.5; IWQ Use Nav1.5 (μM)) [µM],IC50 (hNav1.7) [µM],"IC50 (hNav1.5; Table 22, IonWorks Quattro, use, […], read-out: IWQ Use Nav1.5) [µM]","IC50 (hNav1.7; Table 22, IonWorks Quattro, use, […], read-out: IWQ Use Nav1.7) [µM]","IC50 (hNav1.3; Table 22, use, […]) [µM]"
"CC[C@H](C)[C@@H]1NC(=O)[C@@H]2CSSC[C@@H]3NC(=O)[C@H](C(C)C)NC(=O)[C@H](CC(C)C)NC(=O)[C@H](CC(N)=O)NC(=O)[C@@H]4CCCN4C(=O)[C@H](CCCNC(=N)N)NC(=O)[C@H](CSSC[C@H](NC(=O)[C@@H](N)CC(=O)O)C(=O)N[C@@H](CC(C)C)C(=O)NCC(=O)N[C@@H](Cc4ccccc4)C(=O)N[C@@H](CCSC)C(=O)N[C@@H](CCCNC(=N)N)C(=O)N[C@@H](CCCCN)C(=O)N2)NC(=O)[C@H](CSSC[C@@H](C(=O)N[C@@H](CCCCN)C(=O)N[C@@H](Cc2ccc(O)cc2)C(=O)N[C@H](C(=O)N[C@@H](Cc2ccccc2)C(N)=O)C(C)C)NC(=O)[C@H](Cc2c[nH]c4ccccc24)NC(=O)[C@H](CCCCN)NC(=O)[C@H](Cc2cnc[nH]2)NC(=O)[C@H]([C@@H](C)O)NC(=O)[C@H](CCCNC(=N)N)NC(=O)[C@H](CO)NC3=O)NC(=O)[C@H](CCCCN)NC(=O)[C@H](CC(=O)O)NC(=O)[C@H](CC(N)=O)NC(=O)[C@H](Cc2c[nH]c3ccccc23)NC(=O)[C@@H]2CCCN2C1=O [compound 172] (H-DCLGFMRKCIPWNDKCCRPNLVCSRTHKWCKYVF-NH2; disulfide 2-17, 9-23, 16-30)",8.04,0.05,0.04,,,,,
"CC[C@H](C)[C@@H]1NC(=O)[C@@H]2CSSC[C@@H]3NC(=O)[C@H](C(C)C)NC(=O)[C@H](CC(C)C)NC(=O)[C@H](CC(N)=O)NC(=O)[C@@H]4CCCN4C(=O)[C@H](CCCNC(=N)N)NC(=O)[C@H](CSSC[C@H](NC(=O)[C@@H](N)CC(=O)O)C(=O)N[C@@H](CC(C)C)C(=O)NCC(=O)N[C@@H](Cc4ccccc4)C(=O)N[C@@H](CCSC)C(=O)N[C@@H](CCCNC(=N)N)C(=O)N[C@@H](CCCCN)C(=O)N2)NC(=O)[C@H](CSSC[C@@H](C(=O)N[C@@H](CCCCN)C(=O)N[C@@H](Cc2ccc(O)cc2)C(=O)N[C@H](C(=O)N[C@@H](Cc2ccccc2)C(N)=O)C(C)C)NC(=O)[C@H](Cc2c[nH]c4ccccc24)NC(=O)[C@H](CCCCN)NC(=O)[C@H](Cc2cnc[nH]2)NC(=O)[C@H]([C@@H](C)O)NC(=O)[C@H](CCCNC(=N)N)NC(=O)[C@H](CO)NC3=O)NC(=O)[C@H](CCCCN)NC(=O)[C@H](CC(=O)O)NC(=O)[C@H](Cc2c[nH]c3ccccc23)NC(=O)[C@H](CC(=O)O)NC(=O)[C@@H]2CCCN2C1=O [compound 173] (H-DCLGFMRKCIPDWDKCCRPNLVCSRTHKWCKYVF-NH2; disulfide 2-17, 9-23, 16-30)",17.3,0.09,0.05,,,,,
"CC[C@H](C)[C@@H]1NC(=O)[C@@H]2CSSC[C@@H]3NC(=O)[C@H](C(C)C)NC(=O)[C@H](CC(C)C)NC(=O)[C@H](CC(N)=O)NC(=O)[C@@H]4CCCN4C(=O)[C@H](Cc4c[nH]c5ccccc45)NC(=O)[C@H](CSSC[C@H](NC(=O)[C@@H](N)CC(=O)O)C(=O)N[C@@H](CC(C)C)C(=O)NCC(=O)N[C@@H](Cc4ccccc4)C(=O)N[C@@H](CCSC)C(=O)N[C@@H](CCCNC(=N)N)C(=O)N[C@@H](CCCCN)C(=O)N2)NC(=O)[C@H](CSSC[C@@H](C(=O)N[C@@H](CCCCN)C(=O)N[C@@H](Cc2ccc(O)cc2)C(=O)N[C@H](C(=O)N[C@@H](Cc2ccccc2)C(N)=O)C(C)C)NC(=O)[C@H](Cc2c[nH]c4ccccc24)NC(=O)[C@H](CCCCN)NC(=O)[C@H](Cc2c[nH]cn2)NC(=O)[C@H]([C@@H](C)O)NC(=O)[C@H](CCCNC(=N)N)NC(=O)[C@H](CO)NC3=O)NC(=O)[C@H](CCCCN)NC(=O)[C@H](CC(=O)O)NC(=O)[C@H](CC(N)=O)NC(=O)[C@H](CC(=O)O)NC(=O)[C@@H]2CCCN2C1=O [compound 174] (H-DCLGFMRKCIPDNDKCCWPNLVCSRTHKWCKYVF-NH2; disulfide 2-17, 9-23, 16-30)",14.7,0.19,0.08,,,,,
"CC[C@H](C)[C@@H]1NC(=O)[C@@H]2CSSC[C@@H]3NC(=O)[C@H](C(C)C)NC(=O)[C@H](CC(C)C)NC(=O)[C@H](Cc4c[nH]c5ccccc45)NC(=O)[C@@H]4CCCN4C(=O)[C@H](CCCNC(=N)N)NC(=O)[C@H](CSSC[C@H](NC(=O)[C@@H](N)CC(=O)O)C(=O)N[C@@H](CC(C)C)C(=O)NCC(=O)N[C@@H](Cc4ccccc4)C(=O)N[C@@H](CCSC)C(=O)N[C@@H](CCCNC(=N)N)C(=O)N[C@@H](CCCCN)C(=O)N2)NC(=O)[C@H](CSSC[C@@H](C(=O)N[C@@H](CCCCN)C(=O)N[C@@H](Cc2ccc(O)cc2)C(=O)N[C@H](C(=O)N[C@@H](Cc2ccccc2)C(N)=O)C(C)C)NC(=O)[C@H](Cc2c[nH]c4ccccc24)NC(=O)[C@H](CCCCN)NC(=O)[C@H](Cc2cnc[nH]2)NC(=O)[C@H]([C@@H](C)O)NC(=O)[C@H](CCCNC(=N)N)NC(=O)[C@H](CO)NC3=O)NC(=O)[C@H](CCCCN)NC(=O)[C@H](CC(=O)O)NC(=O)[C@H](CC(N)=O)NC(=O)[C@H](CC(=O)O)NC(=O)[C@@H]2CCCN2C1=O [compound 175] (H-DCLGFMRKCIPDNDKCCRPWLVCSRTHKWCKYVF-NH2; disulfide 2-17, 9-23, 16-30)",7.39,0.05,0.02,,,,,
"CC[C@H](C)[C@@H]1NC(=O)[C@@H]2CSSC[C@@H]3NC(=O)[C@H](C(C)C)NC(=O)[C@H](Cc4c[nH]c5ccccc45)NC(=O)[C@H](CC(N)=O)NC(=O)[C@@H]4CCCN4C(=O)[C@H](CCCNC(=N)N)NC(=O)[C@H](CSSC[C@H](NC(=O)[C@@H](N)CC(=O)O)C(=O)N[C@@H](CC(C)C)C(=O)NCC(=O)N[C@@H](Cc4ccccc4)C(=O)N[C@@H](CCSC)C(=O)N[C@@H](CCCNC(=N)N)C(=O)N[C@@H](CCCCN)C(=O)N2)NC(=O)[C@H](CSSC[C@@H](C(=O)N[C@@H](CCCCN)C(=O)N[C@@H](Cc2ccc(O)cc2)C(=O)N[C@H](C(=O)N[C@@H](Cc2ccccc2)C(N)=O)C(C)C)NC(=O)[C@H](Cc2c[nH]c4ccccc24)NC(=O)[C@H](CCCCN)NC(=O)[C@H](Cc2cnc[nH]2)NC(=O)[C@H]([C@@H](C)O)NC(=O)[C@H](CCCNC(=N)N)NC(=O)[C@H](CO)NC3=O)NC(=O)[C@H](CCCCN)NC(=O)[C@H](CC(=O)O)NC(=O)[C@H](CC(N)=O)NC(=O)[C@H](CC(=O)O)NC(=O)[C@@H]2CCCN2C1=O [compound 176] (H-DCLGFMRKCIPDNDKCCRPNWVCSRTHKWCKYVF-NH2; disulfide 2-17, 9-23, 16-30)",,,0.05,13.8,0.1,,,
"CC[C@H](C)[C@@H]1NC(=O)[C@@H]2CSSC[C@@H]3NC(=O)[C@H](Cc4c[nH]c5ccccc45)NC(=O)[C@H](CC(C)C)NC(=O)[C@H](CC(N)=O)NC(=O)[C@@H]4CCCN4C(=O)[C@H](CCCNC(=N)N)NC(=O)[C@H](CSSC[C@H](NC(=O)[C@@H](N)CC(=O)O)C(=O)N[C@@H](CC(C)C)C(=O)NCC(=O)N[C@@H](Cc4ccccc4)C(=O)N[C@@H](CCSC)C(=O)N[C@@H](CCCNC(=N)N)C(=O)N[C@@H](CCCCN)C(=O)N2)NC(=O)[C@H](CSSC[C@@H](C(=O)N[C@@H](CCCCN)C(=O)N[C@@H](Cc2ccc(O)cc2)C(=O)N[C@H](C(=O)N[C@@H](Cc2ccccc2)C(N)=O)C(C)C)NC(=O)[C@H](Cc2c[nH]c4ccccc24)NC(=O)[C@H](CCCCN)NC(=O)[C@H](Cc2cnc[nH]2)NC(=O)[C@H]([C@@H](C)O)NC(=O)[C@H](CCCNC(=N)N)NC(=O)[C@H](CO)NC3=O)NC(=O)[C@H](CCCCN)NC(=O)[C@H](CC(=O)O)NC(=O)[C@H](CC(N)=O)NC(=O)[C@H](CC(=O)O)NC(=O)[C@@H]2CCCN2C1=O [compound 177] (H-DCLGFMRKCIPDNDKCCRPNLWCSRTHKWCKYVF-NH2; disulfide 2-17, 9-23, 16-30)",,,0.06,8.02,0.03,,,
"CC[C@H](C)[C@@H]1NC(=O)[C@@H]2CSSC[C@@H]3NC(=O)[C@H](C(C)C)NC(=O)[C@H](CC(C)C)NC(=O)[C@H](CC(N)=O)NC(=O)[C@@H]4CCCN4C(=O)[C@H](CCCNC(=N)N)NC(=O)[C@H](CSSC[C@H](NC(=O)[C@@H](N)CC(=O)O)C(=O)N[C@@H](CC(C)C)C(=O)NCC(=O)N[C@@H](Cc4ccccc4)C(=O)N[C@@H](CCSC)C(=O)N[C@@H](CCCNC(=N)N)C(=O)N[C@@H](CCCCN)C(=O)N2)NC(=O)[C@H](CSSC[C@@H](C(=O)N[C@@H](CCCCN)C(=O)N[C@@H](Cc2ccc(O)cc2)C(=O)N[C@H](C(=O)N[C@@H](Cc2ccccc2)C(N)=O)C(C)C)NC(=O)[C@H](Cc2c[nH]c4ccccc24)NC(=O)[C@H](CCCCN)NC(=O)[C@H](Cc2cnc[nH]2)NC(=O)[C@H](Cc2c[nH]c4ccccc24)NC(=O)[C@H](CCCNC(=N)N)NC(=O)[C@H](CO)NC3=O)NC(=O)[C@H](CCCCN)NC(=O)[C@H](CC(=O)O)NC(=O)[C@H](CC(N)=O)NC(=O)[C@H](CC(=O)O)NC(=O)[C@@H]2CCCN2C1=O [compound 178] (H-DCLGFMRKCIPDNDKCCRPNLVCSRWHKWCKYVF-NH2; disulfide 2-17, 9-23, 16-30)",,,,,,5.84,0.03,0.02
